{"source": "patent US11660319B2", "about": "“Compositions comprising bacterial strains” (priority 2017, dated 2023)", "key": {"[1]": {"system": "SH-SY5Y neuroblastoma cells", "test": "Neuroprotection / cell viability of neuroblastoma cells treated with MPP (CCK-8)", "assay_type": "cell-based, human", "quoted_text": "Once grown the SH-SY5Y neuroblastoma cells were plated on 96-well plate at 11,000 cells/well and incubated for 2 days. The cells were then transferred to differentiation medium (which contains FBS at 1%) and 10 uM retinoic acid (Sigma Aldrich, cat. n. R2625-100MG). Differentiation medium was replaced every other day and cells were harvested at 7 day of differentiation. Cells were pre-treated with or without MPP (Sigma Aldrich, cat. n. D048-1G) for 8 hours. Subsequently, cells were treated with 10% bacterial supernatant and incubated overnight. Cell viability was measured by using CCK-8 reagent (Sigma Aldrich, Cell Counting Kit-8, cat. n. 96992-3000TESTS-F) and read at 450 nm wavelength."}, "BALBc mice": {"system": "BALBc mice", "test": "Gene expression in hippocampus, amygdala and prefrontal cortex (qPCR)", "assay_type": "in vivo, mouse", "conditions": "amygdala", "experimental": "Animals were allowed to habituate to their holding room for one week after arrival into the animal unit. They receive oral gavage (200 μL dose) of live biotherapeutics at a dose of 1×10^9 CFU for 6 consecutive days between 15:00 and 17:00. On day 7, the animals are decapitated, and tissues are harvested for experimentation.\nTotal RNA was extracted using the mirVana™ miRNA Isolation kit (Ambion/Llife technologies, Paisley, UK) and DNase treated (Turbo DNA-free, Ambion/life technologies) according to the manufacturers recommendations. RNA was quantified using NanoDrop™ spectrophotometer (Thermo Fisher Scientific Inc., Wilmington, Del., USA) according to the manufacturer's instructions. RNA quality was assessed using the Agilent Bioanalyzer (Agilent, Stockport, UK) according to the manufacturer's procedure and an RNA integrity number (RIN) was calculated. RNA with RIN value >7 was used for subsequent experiments. RNA was reverse transcribed to cDNA using the Applied Biosystems High Capacity cDNA kit (Applied Biosystems, Warrington, UK) according to manufacturer's instructions. Briefly, Multiscribe Reverse Transcriptase (50 U/μL) (1)(2)(1)(10) was added as part of RT master mix, incubated for 25° C. for 10 min, 37° C. for 2 h, 85° C. for 5 min and stored at 4° C. Quantitative PCR was carried out using probes (6 carboxy fluorescein-FAM) designed by Applied Biosystems to mouse specific targeted genes, while using β-actin as an endogenous control. Amplification reactions contained 1 μl cDNA, 5 μl of the 2× PCR Master mix (Roche), 900 nM of each primer and were brought to a total of 10 μl by the addition of RNase-free water. All reactions were performed in triplicate using 96-well plates on the LightCycler®480 System. Thermal cycling conditions were as recommended by the manufacturer (Roche) for 55 cycles. To check for amplicon contamination, each run contained no template controls in triplicate for each probe used. Cycle threshold (Ct) values were recorded. Data was normalized using β-actin and transformed using the 2-ΔΔCT method and presented as a fold change vs. control group.\nExpression of genes for neurotransmitter receptors [serotonin receptor 1a(5-HTR1a), dopamine D1 receptor, GABA receptor subunit B1, GABAA receptor, NMDA2A (Grin2A) and NMDA2B (Grin2b) receptor], inflammatory markers [IL-1β, IL6, CD11b, TNFα and TLR4], and endocrine markers [corticosterone releasing factor (CRF), corticosterone releasing factor receptors 1 and 2 (CRFR1, CRFR2), brain-derived neurotrophin factor (BDNF), vasopressin receptor, oxytocin receptor, glucocorticoid receptor and mineralocorticoid receptor] were analysed in brain tissue from the hippocampus, amygdala and prefrontal cortex."}, "MPTP lesioned mice": {"system": "MPTP lesioned mice", "test": "Dopamine, DOPAC and HVA in striatum of MPTP lesioned mice (HPLC)", "assay_type": "in vivo, mouse", "conditions": "2 x 10^8 bacteria p.o. 18 days, MPTP 4 × 20 mg/kg i.p. day 0, day 4 sampling", "experimental": "The aim of this study was to evaluate the effects of MRX0029 anaerobic bacteria using MPTP lesioned mice. 48 male mice were allocated to 4 different treatment groups (groups A, B, E and I, with n=12 animals in each group). The treatment groups are shown in Table 1 below and the project time course is outlined below.\nGroups A, B, E and I were treated daily for 18 days via oral gavage with either bacteria (MRx0029-group E), or vehicle (PBS). Oral treatment started 14 days before MPTP lesion. Group I animals received a daily vehicle (PBS) p.o. (per oral) treatment and were injected i.p. (intraperitoneal) with the reference drug 30 min before and 90 min after first MPTP on day 0. The application volume for p.o. and vehicle treatment was 200 μl per mouse. Bacteria strain of group E was from glycerol stocks (gly). For oral treatment, gavages for applications were stored in vial containing 70% Ethanol and were flushed before and after each use with distilled water. Every treatment group had its own gavage and ethanol vial and distilled water vial. The tubes and gavages were not changed between the groups. […]\nConcentrations of DA, DOPAC and HVA in the striatal samples were determined by column liquid chromatography with electrochemical detection [110; 111]. […] The chromatograms were recorded and integrated by use of a computerized data acquisition system (DataApex, Prague, Czech Republic). […]"}, "[2]": {"system": "U373 astroglioblastoma cells", "test": "ROS generated by TBHP (DCFDA fluorescence)", "assay_type": "cell-based, human", "conditions": "10% bacteria supernatant"}}}
{"substance": "Megasphaera massiliensis [MRx0029]", "values": [{"measurement": "proliferation of neurons", "setting": "[1]; 10% bacterial supernatant, without MPP", "result": "increase"}, {"measurement": "cell viability of cells treated with MPP", "setting": "[1]; MPP pre-treatment 8 hours, then 10% bacterial supernatant overnight, compared to MPP alone", "result": "rescued viability more than the positive control"}, {"measurement": "protection from MPP+ (cell viability)", "setting": "[1]; RA-differentiated SHSY-5Y cells treated with MPP+", "result": "complete protection"}, {"measurement": "mitochondria metabolic activity", "setting": "[1]; RA-differentiated SHSY-5Y cells, per se (no MPP+)", "result": "increase"}, {"measurement": "expression of CD11b", "setting": "BALBc mice", "result": "increase"}, {"measurement": "expression of GABBR1", "setting": "BALBc mice", "result": "increased"}, {"measurement": "expression of GABRA2", "setting": "BALBc mice", "result": "significantly increased"}, {"measurement": "expression of TLR4", "setting": "BALBc mice", "result": "significantly increased"}, {"measurement": "glucocorticoid receptor expression", "setting": "BALBc mice", "result": "increase"}, {"measurement": "DOPAC in striatum", "setting": "MPTP lesioned mice", "result": "recover production"}, {"measurement": "Dopamine in striatum", "setting": "MPTP lesioned mice", "result": "recover production"}, {"measurement": "generation of ROS", "setting": "[2]", "result": "did not have an effect"}]}
